Results as given in PMC10093605, “ABCB1 and ABCG2 Overexpression Mediates Resistance to the Phosphatidylinositol 3-Kinase Inhibitor HS-173 in Cancer Cell Lines” (Cells, 2023).

Legend:
ABCG2 = molecular target: T1, ABCG2 (Homo sapiens, UniProt Q9UNQ0); assay: vanadate-sensitive ATPase, endpoint Pi assay, membrane vesicles; assay type: biochemical; conditions: read-out: concentration to produce half of the highest stimulation
T1 construct: membrane vesicles of ABCG2-overexpressing High Five insect cells; homodimer
T1 sequence (Q9UNQ0 1-655): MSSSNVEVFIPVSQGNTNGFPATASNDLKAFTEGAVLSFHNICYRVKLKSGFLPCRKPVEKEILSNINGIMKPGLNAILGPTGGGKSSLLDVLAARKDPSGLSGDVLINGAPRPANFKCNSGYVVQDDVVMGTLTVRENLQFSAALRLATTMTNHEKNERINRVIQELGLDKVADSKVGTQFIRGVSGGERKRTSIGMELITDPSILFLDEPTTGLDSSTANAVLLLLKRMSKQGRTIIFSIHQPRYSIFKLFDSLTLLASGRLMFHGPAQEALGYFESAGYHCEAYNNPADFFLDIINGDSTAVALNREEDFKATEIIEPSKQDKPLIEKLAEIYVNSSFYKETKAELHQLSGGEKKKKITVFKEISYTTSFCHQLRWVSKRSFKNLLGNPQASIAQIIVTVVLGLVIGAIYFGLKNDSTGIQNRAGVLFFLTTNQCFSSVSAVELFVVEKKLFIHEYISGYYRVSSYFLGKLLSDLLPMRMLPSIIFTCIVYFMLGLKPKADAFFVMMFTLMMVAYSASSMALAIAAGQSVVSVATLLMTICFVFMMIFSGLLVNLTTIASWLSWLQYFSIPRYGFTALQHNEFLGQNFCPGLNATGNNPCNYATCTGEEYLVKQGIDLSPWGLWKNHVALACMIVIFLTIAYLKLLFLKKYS
Text: vanadate-sensitive ATPase, endpoint Pi assay, membrane vesicles on ABCG2 | ABCG2-mediated ATP hydrolysis was stimulated by HS-173 in a concentration-dependent manner

ABCB1 = molecular target: T2, ABCB1 (Homo sapiens, UniProt P08183); assay: as above; assay type: biochemical; conditions: read-out: concentration to produce half of the maximum stimulation
T2 construct: membrane vesicles of ABCB1-overexpressing High Five insect cells
Text: vanadate-sensitive ATPase, endpoint Pi assay, membrane vesicles on ABCB1 | HS-173 stimulated the ATPase activity of ABCB1 in a concentration-dependent manner

T2 sequence (P08183 whole entry): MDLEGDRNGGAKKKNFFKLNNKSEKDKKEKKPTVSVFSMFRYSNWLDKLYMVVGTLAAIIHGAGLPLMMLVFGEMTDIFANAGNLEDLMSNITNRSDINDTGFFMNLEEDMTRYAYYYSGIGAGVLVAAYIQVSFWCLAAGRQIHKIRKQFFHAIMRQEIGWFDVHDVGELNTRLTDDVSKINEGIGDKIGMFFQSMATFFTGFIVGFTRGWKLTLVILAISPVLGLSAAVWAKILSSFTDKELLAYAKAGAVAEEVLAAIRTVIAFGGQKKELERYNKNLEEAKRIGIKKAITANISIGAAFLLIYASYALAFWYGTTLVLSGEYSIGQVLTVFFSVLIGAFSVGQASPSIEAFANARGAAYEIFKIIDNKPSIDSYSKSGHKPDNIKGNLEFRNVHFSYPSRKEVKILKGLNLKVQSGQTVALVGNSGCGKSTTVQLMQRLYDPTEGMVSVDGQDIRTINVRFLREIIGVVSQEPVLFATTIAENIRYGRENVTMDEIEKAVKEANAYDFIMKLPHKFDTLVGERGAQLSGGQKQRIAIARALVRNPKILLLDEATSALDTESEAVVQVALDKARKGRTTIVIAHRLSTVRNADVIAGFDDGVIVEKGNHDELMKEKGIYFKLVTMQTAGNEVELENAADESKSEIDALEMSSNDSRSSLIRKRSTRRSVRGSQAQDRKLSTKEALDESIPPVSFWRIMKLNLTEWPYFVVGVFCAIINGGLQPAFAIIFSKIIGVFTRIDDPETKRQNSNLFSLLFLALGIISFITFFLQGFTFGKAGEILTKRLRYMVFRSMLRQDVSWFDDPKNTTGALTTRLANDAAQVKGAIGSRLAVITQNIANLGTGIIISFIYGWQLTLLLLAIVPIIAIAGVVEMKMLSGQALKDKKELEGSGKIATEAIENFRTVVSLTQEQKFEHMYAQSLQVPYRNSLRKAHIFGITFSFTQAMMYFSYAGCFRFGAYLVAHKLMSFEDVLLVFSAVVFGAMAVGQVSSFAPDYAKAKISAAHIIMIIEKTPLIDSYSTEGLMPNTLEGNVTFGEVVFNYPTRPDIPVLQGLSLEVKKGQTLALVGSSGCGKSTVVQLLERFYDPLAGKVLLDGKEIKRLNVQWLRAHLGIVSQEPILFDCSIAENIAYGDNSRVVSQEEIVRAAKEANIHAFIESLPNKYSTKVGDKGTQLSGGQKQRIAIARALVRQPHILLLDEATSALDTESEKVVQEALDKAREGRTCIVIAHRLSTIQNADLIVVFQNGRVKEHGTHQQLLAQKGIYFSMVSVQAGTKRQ

Structure (SMILES): CCOC(=O)c1cnc2ccc(-c3cncc(NS(=O)(=O)c4ccccc4)c3)cn12 [HS-173]
- EC50 (ABCG2): ~400 nM
- EC50 (ABCB1): ~1700 nM
